Laboratory results taken from publication PMC6054118, “In vivo study and thermodynamic investigation of two lanthanum complexes, La(dpp)3 and La(XT), for the treatment of bone resorption disorders” (Chemical Science, 2015).
Values joined by “and” are separate entries in the source; they are usually repeats but may differ in a detail not shown here. Equal values may be shown once. Read-outs that look alike come from different tables or passages of the source. One block for each molecule: values may come before it.

How the values were obtained:
[1] = hydroxyapatite binding study (batch, La^3+ depletion in supernatant by ICP-MS); details: pH 7.4, 37 °C, excess HAP
Procedure: (§1) Lanthanide concentration for both in vivo and in vitro studies were determined by ICP-MS analysis by the method reported previously.[30] In brief, samples were dried (vacuum centrifugation) and dissolved in conc. nitric acid (Optima) and slowly heated to 105 °C over 1 h and maintained at 105 °C for 24 h. Hydrogen peroxide (approximately 2 mL) was added and samples heated at 140 °C for 24 h. Samples were evaporated to dryness at 150 °C before redissolving in 3 mL of 10% nitric acid (with 10 ppm Rh) prior to analysis by ICP-MS.
All time points were run in triplicate. Samples containing 10 mg of hydroxyapatite (Sigma-Aldrich) were initially incubated and agitated (37 °C, 220 rpm) with 0.9 mL HEPES buffer (100 mM, pH 7.4) in 1.5 mL Eppendorfs for 24 hours. Stock solutions (1.0 mM) of La(dpp)3 and La(XT) were prepared from the premade complexes dissolved in HEPES buffer. At the outset of the experiment, 100 μL of either stock solution was added to a sample and incubated and agitated for a set time. When the time point was reached, the supernatant was carefully removed, taking care not to disturb the residual HAP, and filtered through a 22 micron frit. […] Samples containing La(dpp)3 were also analysed by UV-Vis spectroscopy to determine Hdpp concentration. […]

[2] = tissue and plasma distribution of lanthanum after multiple intravenous doses (ICP-MS); assay type: in vivo, SD rats; details: for plasma levels after 5 days of treatment / La^3+ concentration in brain / La^3+ concentration in heart / La^3+ concentration in kidney / La^3+ concentration in spleen: IV 1 mg kg^–1 per day for 5 days; for plasma levels after 5 days of treatment: mean ± SD; for La^3+ concentration in brain / La^3+ concentration in heart / La^3+ concentration in kidney / La^3+ concentration in spleen: n = 6, mean ± SD; for plasma concentration, t=end, mean / plasma concentration, t=end, single animals: IV 1mg/kg/day, end of trial; for plasma concentration, t=end, mean: n=6, mean; for plasma concentration, t=end, single animals: value of each animal, 1 mg/kg/day
Procedure: as §1
(§2) Solutions of La(dpp)3 and La(XT) (1 mg mL^–1) were prepared in 10% DMSO and stored at 4 °C. Animals were administered with a dose of 1 mg kg^–1 once daily for 5 consecutive days by intravenous injection via jugular vein port. The animals were sacrificed on the day of the 5th dose and the spleen liver, kidney lungs, heart, brain and bones were collected. Blood samples (0.5 mL) were withdrawn at pre-dose and post-dose. The blood was centrifuged for 10 min at […] at room temperature to obtain the plasma. For organ homogenization, 1 g organ was added to 2 mL normal saline. Bones were cleaned manually of all soft flesh and sectioned into knee, middle, and hip parts using a ceramic blade, and lyophilized prior to normal acid digestion.

MG-63 cells = tested on: MG-63 cells; set-up: method as in PMID 17992287, PMID 23299719, PMID 11442371; details: earlier work of the authors, read-out: EC50 (cellular toxicity); cited from earlier work
[3] = set-up: method as in PMID 23299719, PMID 11442371; details: cited from earlier work; for pM (= –log[La^3+]): calculated at pH 7.4, 100 μM ligand, 10 μM metal
[4] = plasma clearance and pharmacokinetics after single intravenous dose; assay type: in vivo, SD rats
Procedure: as §1
(§3) Solutions of La(dpp)3 were prepared in 10% DMSO and the stability of the complex over time (7 days) monitored by spectrophotometric methods. The solution of La(dpp)3 was administered to the animals through cannulae implanted in their jugular veins (n = 6). The animals received a dose of 1 mg kg^–1 at time 0 h and blood samples (0.25 mL were withdrawn at pre-dose, 5, 10, 15, 30 min and 1, 2, 3, 4, 6, 10, 24, 48, 72, 96 and 144 h post-dose). The animals were sacrificed following the last time point and the spleen, liver, kidney, lungs, heart and brain were collected. Lanthanide concentrations were determined by ICP-MS analysis following acid digestion of the samples. The calibration curves were linear in the range of 0.1–100 ng mL^–1 and 1–50 ng mL^–1 in the organs and plasma; respectively. The plasma pharmacokinetic parameters were derived by non-compartmental analysis of plasma concentration-time profiles using Phoenix software (Ver. 1.3).

[5] = tissue distribution of lanthanum after single intravenous dose (ICP-MS); assay type: in vivo, SD rats; details: single IV dose 1 mg kg^–1, last sampling point 144 h
Procedure: as §1, §3

[6] = bone (femur) distribution of lanthanum after multiple doses; assay type: in vivo, SD rats; details: 1 mg kg^–1 per day for 5 days, ANOVA p 0.006, 0.017, 0.004 (hip, mid, knee)
Procedure: as §1, §2

[7] = isothermal titration calorimetry, binding to hydroxyapatite; details: ITC
Procedure: ITC experiments in the presence of ligand (Hdpp or XT) were carried out in either piperazine (100 mM) pH 5 or HEPES (100 mM) pH 7.4. Titrations were performed by injecting consecutive 10 μL aliquots of ligand (2.5–80 mM) or metal ion/ligand solution (2.5/10 mM for Hdpp and 81/90 mM for XT) into the ITC cell (volume = 1.4 mL) containing hydroxyapatite (0.1–1.5 mM) suspension. Hydroxylapatite suspensions were prepared by adding the required amount of hydroxyapatite to the appropriately buffered solution followed by sonication for 5 minutes. The ITC cell was stirred continuously during the titration. Control experiments (heats of dilution) were performed by titration of ligand or metal ion/ligand solution into buffer containing no hydroxyapatite. Each ITC experiment was performed in triplicate (at least). The error associated with diffusion from the syringe during baseline equilibration, the first injection was only 5 μL, and the associated small heat was not included in the data analysis.

[8] = set-up: method as in Cawthray et al. 37; details: ITC, 37 °C, ref Cawthray et al. 37; cited from earlier work
[9] = thermodynamic stability of the complex
[10] = La^3+ in plasma, La(dpp)3 1 mg kg^–1 IV, SD rats, non-compartmental, n = 6, mean

Compound: O=C(O)CN(CC(=O)O)CP(=O)(O)CN(CC(=O)O)CC(=O)O [H5XT, bis[[bis(carboxymethyl)amino]-methyl]phosphinate]
apparent K a (pH 5) ([7]; 37 °C, pH 5 (100 mM piperazine), one-site bimolecular–bimolecular model): 1.9 (±0.4) × 10^2 M^–1
K (one-site fit) ([7]; 37 °C, pH 7.4 (100mM HEPES), 30.4mM H5XT into 1.1 mM HAP, Fig. S2): 6.61E3±1.33E3

Compound: [La+3] [Free La^3+]
apparent K a (pH 5) [8]: 2.4 (±0.2) × 10^6 M^–1

Now from value to molecule, other results behind:

La^3+ bound to HAP ([1]; first 15 minutes): greater than 80%
plasma levels after 5 days of treatment [2]: 5517 ± 1188 ng g^–1
La^3+ concentration in brain [2]: 101 ± 60 ng g^–1
La^3+ concentration in heart [2]: 635 ± 178 ng g^–1
La^3+ concentration in kidney [2]: 992 ± 321 ng g^–1
La^3+ concentration in spleen [2]: 7817 ± 3211 ng g^–1
plasma concentration, t=end, mean [2]: 5517.0 ng/g weight
lanthanum in plasma beyond 10 h ([4]; 1 mg kg^–1 IV, beyond 10 h): not detected
time until plasma lanthanum is back to pre-dose concentrations ([4]; 1 mg kg^–1 IV, pre-dose ∼15 ng mL^–1): ≤ 24 h
C 0 [4, 10]: 4973 ± 557 ng mL^–1 and 4973.09 ng mL^–1
Cl [4, 10]: 77 mL h^–1 kg^–1 and 77.24 mL h^–1 kg^–1
K el [4, 10]: 0.20 h^–1
MRT [4, 10]: 3.46 h
T 1/2 [4, 10]: 3.61 h
V ss [4, 10]: 265 mL kg^–1 and 265.41 mL kg^–1
plasma lanthanum level as % of C0 ([4]; within 6 hours after 1 mg kg^–1 IV): approximately 10%
La^3+ concentration in brain [5]: 15 ± 12 ng g^–1
La^3+ concentration in heart [5]: 20 ± 7 ng g^–1
La^3+ concentration in kidney [5]: 108 ± 95 ng g^–1
La^3+ concentration in liver [5]: 741 ± 109 ng g^–1
La^3+ concentration in spleen [5]: 1164 ± 350 ng g^–1
Compound: Cc1c([O-])c(=O)ccn1C.Cc1c([O-])c(=O)ccn1C.Cc1c([O-])c(=O)ccn1C.[La+3] [La(dpp)3]
plasma concentration, t=end, single animals [2]: 4971.8 ng/g weight and 4668.4 ng/g weight and 4232.8 ng/g weight and 7201.5 ng/g weight and 6740.2 ng/g weight and 5287.1 ng/g weight
EC50 (MG-63 cells): > 100 µM
pM (= –log[La^3+]) [3]: 5.8
log βML3 [3, 9]: 17.44

La^3+ bound to HAP ([1]; after 4 h): less than 20%
plasma levels after 5 days of treatment [2]: 5999 ± 302 ng g^–1
La^3+ concentration in brain [2]: 112 ± 84 ng g^–1
La^3+ concentration in heart [2]: 768 ± 115 ng g^–1
La^3+ concentration in kidney [2]: 1320 ± 157 ng g^–1
La^3+ concentration in spleen [2]: 3854 ± 827 ng g^–1
plasma concentration, t=end, mean [2]: 5998.7 ng/g weight
bone distribution of lanthanum compared to La(dpp)3 [6]: slightly greater
Compound: O=C([O-])CN(CC(=O)[O-])CP(=O)(O)CN(CC(=O)[O-])CC(=O)[O-].[La+3] [La(XT)]
plasma concentration, t=end, single animals [2]: 5843.4 ng/g weight and 6432.4 ng/g weight and 5776.8 ng/g weight and 6337.3 ng/g weight and 5782.3 ng/g weight and 5819.9 ng/g weight
pM (= –log[La^3+]) [3]: 12.0
log βML [3, 9]: 13.0(3)

interaction of ligand alone with HAP ([7]; pH 5, absence of La^3+): do not see any evidence of interaction
binding of ligand alone to HAP ([7]; pH 7.4, absence of La^3+): no binding is observed
Compound: Cc1c(O)c(=O)ccn1C [Hdpp, 3-hydroxy-1,2-dimethylpyridin-4(1H)-one]
